The values below come from ChEMBL document CHEMBL1139756, “Synthesis and structure-activity relationship of novel indene N-oxide derivatives as potent peroxisome proliferator activated receptor gamma (PPARgamma) agonists” (Bioorg Med Chem Lett, 2007).

The assay has as its target T1, Peroxisome proliferator-activated receptor gamma (Homo sapiens, UniProt P37231).
T1 sequence (P37231 whole entry): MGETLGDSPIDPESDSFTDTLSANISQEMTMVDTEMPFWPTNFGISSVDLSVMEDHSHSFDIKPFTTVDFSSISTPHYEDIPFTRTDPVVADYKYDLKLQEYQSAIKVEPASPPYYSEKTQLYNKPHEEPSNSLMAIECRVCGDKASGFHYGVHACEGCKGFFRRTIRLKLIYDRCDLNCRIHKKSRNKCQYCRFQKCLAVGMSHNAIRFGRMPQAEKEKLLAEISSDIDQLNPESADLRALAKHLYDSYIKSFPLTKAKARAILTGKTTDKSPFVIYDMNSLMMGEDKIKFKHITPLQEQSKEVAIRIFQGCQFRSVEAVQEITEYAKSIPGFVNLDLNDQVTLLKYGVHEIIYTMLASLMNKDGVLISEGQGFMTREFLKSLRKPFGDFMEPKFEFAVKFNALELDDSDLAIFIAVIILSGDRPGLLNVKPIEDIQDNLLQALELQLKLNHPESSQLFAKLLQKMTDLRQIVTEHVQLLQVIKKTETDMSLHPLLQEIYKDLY
Description: Agonist activity at human PPARgamma expressed in NIH3T3 cells by GAL4 transactivation assay
Take `CCOC(=O)C1=C(c2ncc[nH]2)c2ccc(OCCCc3ccccc3)cc2/C1=[N+](/C)[O-]`: the EC50 was above 1000 nM. The result for `CCOC(=O)C1=C(c2ccc(C)cc2)c2ccc(OCCCc3ccccc3)cc2/C1=[N+](/C)[O-]` reads 660 nM; that for `CCOC(=O)C1=C(c2ccccc2)c2ccc(OC)cc2/C1=[N+](\[O-])Cc1ccccc1`, above 10000 nM. The result for `CCOC(=O)C1=C(c2cccc(C)c2)c2ccc(OCCCc3ccccc3)cc2/C1=[N+](/C)[O-]` reads 300 nM. Under `CCOC(=O)C1=C(c2ccccc2)c2ccc(OCCC34CC5CC(CC(C5)C3)C4)cc2/C1=[N+](/C)[O-]` stands 840 nM; under `CCOC(=O)C1=C(c2ccc(Cl)cc2)c2ccc(OCCCc3ccccc3)cc2/C1=[N+](/C)[O-]`, 70 nM. `CCOC(=O)C1=C(CC)c2ccc(OCCCc3ccccc3)cc2/C1=[N+](/C)[O-]` returned an EC50 of 80 nM. Under `C/[N+]([O-])=C1\C=C(c2ccccc2)c2ccc(OCCN3CCOCC3)cc21` stands 150 nM; under `COC(=O)C1=C(c2ccccc2)c2ccc(OCCN3CCOCC3)cc2/C1=[N+](/C)[O-]`, 140 nM.

`CCOC(=O)C1=C(c2ccccc2)c2ccc(OC)cc2/C1=N\O`: the EC50 was above 10000 nM. As to `CCOC(=O)C1=C(c2ccccc2)c2ccc(OC)cc2/C1=[N+](\[O-])CC`, the 50% effective concentration (EC50) was above 10000 nM.

With `C/[N+]([O-])=C1\C(C(=O)NC2CC2)=C(c2ccccc2)c2ccc(OCCN3CCOCC3)cc21`, the response was half-maximal at 20 nM (EC50). The result for `CCOC(=O)C1=C(c2ccsc2)c2ccc(OCCCc3ccccc3)cc2/C1=[N+](/C)[O-]` reads 190 nM; that for `CCOC(=O)C1=C(c2ccccc2)c2ccc(OC)cc2/C1=N\OC`, 1500 nM. The result for `CCOC(=O)C1=C(c2ccc3c(c2)OCO3)c2ccc(OCCCc3ccccc3)cc2/C1=[N+](/C)[O-]` reads 250 nM. `CCOC(=O)C1=C(c2ccccc2)c2ccc(OCc3ccccn3)cc2/C1=[N+](/C)[O-]` gave an EC50 of 90 nM.

As usually defined, the EC50 is the midpoint of the concentration-response curve. High values mean lower potency in that assay, low ones higher potency in that assay.
